Laboratory results as given in article PMC4276521 (Biochemical pharmacology, 2014).
Where “and” joins values, the source holds several entries; their conditions need not be identical. Equal values may be shown once. Where a name gives a salt, the structure may show the parent alone. Read-outs that look alike come from different tables or passages of the source.

Legend:
DRD2 [1] = target: T1, DRD2 (Homo sapiens, UniProt P14416)
DRD2 [2] = target: T1, DRD2; remark: listed apart in the source
DRD2 [3] = target: T1, DRD2; remark: listed apart in the source
DRD2 [4] = target: T1, DRD2; details: HEK-AC5/D2 cells; percentage of dopamine's response, standard error in brackets
DRD2 [5] = target: T1, DRD2; assay: cell-based

T1 sequence (P14416 whole entry, species assumed): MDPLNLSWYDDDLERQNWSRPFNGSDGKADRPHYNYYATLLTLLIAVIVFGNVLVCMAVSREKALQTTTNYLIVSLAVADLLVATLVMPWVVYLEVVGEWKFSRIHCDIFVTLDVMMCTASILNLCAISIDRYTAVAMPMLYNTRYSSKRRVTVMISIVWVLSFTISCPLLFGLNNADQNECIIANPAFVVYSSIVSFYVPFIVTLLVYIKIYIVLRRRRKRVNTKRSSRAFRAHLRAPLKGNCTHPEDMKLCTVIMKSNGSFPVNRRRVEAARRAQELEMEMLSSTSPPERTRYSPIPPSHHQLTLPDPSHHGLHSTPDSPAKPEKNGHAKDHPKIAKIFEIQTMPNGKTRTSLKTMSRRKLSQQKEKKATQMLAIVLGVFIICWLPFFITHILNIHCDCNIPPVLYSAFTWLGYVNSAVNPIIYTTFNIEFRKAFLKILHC

| DMR (AUC) Max (DRD2 [3]) | Gαi/o activation Max (DRD2 [1]; HEK-AC5/D2 cells, percentage of dopamine's response, standard error in brackets) | Gβγ activation Max (DRD2 [2]; HEK-AC2/D2 cells, percentage of dopamine's response, standard error in brackets) | DMR (AUC) Max (DRD2 [3]; HEK-D2 cells, percentage of dopamine's response, standard error in brackets) | SMILES | Gαi/o activation Max (DRD2 [1]) | Gβγ activation Max (DRD2 [2]) | Sensitization Max (DRD2 [4]) | EC50 (DRD2 [5]) [nM] |
| --- | --- | --- | --- | --- | --- | --- | --- | --- |
| 98 (±2) % | – | – | – | CCCN[C@H]1CCc2nc(N)sc2C1 [Pramipexole, pramipexole dihydrochloride] | 87 (±4) % | 98% and 98 (±5) % | – | – |
| – | 81 (±6) % | 70 (±4) % | 100 (±2) % | CCCN(CCC)CCc1cccc2c1CC(=O)N2 [Ropinirole, ropinirole hydrochloride] | – | – | 126 (±3) % | – |
| – | – | – | – | CCCN(CCc1cccs1)[C@H]1CCc2c(O)cccc2C1 [Rotigotine, rotigotine hydrochloride] | 88 (±4) % | 79% and 79 (±4) % | – | 0.05 |
